For the assay, the system named is L1210 leukemia ip in BDF1 mice, survival T/C. In words: NCI In Vivo Anticancer Drug Screen. Data for tumor model L1210 Leukemia (intraperitoneal) in B6D2F1 (BDF1) mice. The note with it: endpoint: mean survival time, higher = longer survival. The method, boiled down: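 Survival endpoint. Drug-treated group vs vehicle group, expressed as T divided by C. Tumor passaged by transplantation.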

The mark [1] stands for this setting: dose: 100.0 mg/kg/injection, schedule: Q01DX009 (ip), vehicle: saline with Tween-80.
[2] abbreviates: dose: 100.0 mg/kg/injection, schedule: Q04DX003 (ip), vehicle: saline.
The mark [3] stands for this setting: dose: 200.0 mg/kg/injection, schedule: Q01DX009 (ip), vehicle: saline with Tween-80.
[4] abbreviates: dose: 200.0 mg/kg/injection, schedule: Q04DX003 (ip), vehicle: saline.
Setting [5] is: dose: 400.0 mg/kg/injection, schedule: Q04DX003 (ip), vehicle: saline.
The mark [6] stands for this setting: dose: 100.0 mg/kg/injection, schedule: Q04DX003 (ip), vehicle: Klucel (hydroxypropylcellulose) (HPC).
[7] abbreviates: dose: 100.0 mg/kg/injection, schedule: Q01DX009 (ip), vehicle: saline.
The mark [8] stands for this setting: dose: 100.0 mg/kg/injection, schedule: Q01DX009 (ip), vehicle: Klucel (hydroxypropylcellulose) (HPC).
[9] abbreviates: dose: 200.0 mg/kg/injection, schedule: Q01DX009 (ip), vehicle: Klucel (hydroxypropylcellulose) (HPC).
Setting [10] is: dose: 400.0 mg/kg/injection, schedule: Q01DX009 (ip), vehicle: Klucel (hydroxypropylcellulose) (HPC).
[11] abbreviates: dose: 50.0 mg/kg/injection, schedule: Q01DX001 (ip), vehicle: saline.
The mark [12] stands for this setting: dose: 100.0 mg/kg/injection, schedule: Q01DX001 (ip), vehicle: saline.
[13] abbreviates: dose: 200.0 mg/kg/injection, schedule: Q01DX001 (ip), vehicle: saline.
Where [14] appears, read: dose: 100.0 mg/kg/injection, schedule: Q01DX001 (ip), vehicle: carboxymethylcellulose (CMC).
[15] abbreviates: dose: 200.0 mg/kg/injection, schedule: Q01DX001 (ip), vehicle: carboxymethylcellulose (CMC).
The mark [16] stands for this setting: dose: 400.0 mg/kg/injection, schedule: Q01DX001 (ip), vehicle: carboxymethylcellulose (CMC).
[17] abbreviates: dose: 100.0 mg/kg/injection, schedule: Q01DX001 (ip), vehicle: saline with Tween-80.
The mark [18] stands for this setting: dose: 200.0 mg/kg/injection, schedule: Q01DX001 (ip), vehicle: saline with Tween-80.
[19] abbreviates: dose: 400.0 mg/kg/injection, schedule: Q01DX001 (ip), vehicle: saline with Tween-80.
[20] abbreviates: dose: 400.0 mg/kg/injection, schedule: Q01DX001 (ip), vehicle: saline.
Where [21] appears, read: dose: 100.0 mg/kg/injection, schedule: Q04DX002 (ip), vehicle: Klucel (hydroxypropylcellulose) (HPC).
Setting [22] is: dose: 200.0 mg/kg/injection, schedule: Q04DX002 (ip), vehicle: Klucel (hydroxypropylcellulose) (HPC).
The mark [23] stands for this setting: dose: 400.0 mg/kg/injection, schedule: Q04DX002 (ip), vehicle: Klucel (hydroxypropylcellulose) (HPC).

Toxic doses and inconclusive results are not listed. Peptide text beside a SMILES is read from it. * marks the point of attachment. Cbz = O=C(OCc1ccccc1)*

Take `COc1ccc2c(c1)CC[C@@H]1[C@@H]2CC[C@]2(C)[C@@H](O)C(=O)C[C@@H]12`: the T/C was 90 % of control under setting [1]; 94 % of control under setting [2]; 92 % of control under setting [3]; 88 % of control under setting [4]; 90 % of control (dose: 400.0 mg/kg/injection, schedule: Q01DX009 (ip), vehicle: saline with Tween-80); 91 % of control under setting [5].
For `COc1ccc(NC(=O)Nc2ccc(NC(C)=O)cc2)cc1`, the T/C was 86 % of control under setting [1] and 92 % of control under setting [3].
With `CC(=O)n1cc(/C=C2\N=C(c3ccc([N+](=O)[O-])cc3)OC2=O)c2ccccc21`, the T/C is, setting by setting: (dose: 100.0 mg/kg/injection, schedule: Q04DX002 (ip), vehicle: saline with Tween-80) 95 % of control; (dose: 200.0 mg/kg/injection, schedule: Q04DX002 (ip), vehicle: saline with Tween-80) 109 % of control; (dose: 400.0 mg/kg/injection, schedule: Q04DX002 (ip), vehicle: saline with Tween-80) 92 % of control.
As to `O=Cc1c(Cl)n(-c2ccccc2)c2c(C=O)cccc12`, the T/C is 97 % of control (dose: 25.0 mg/kg/injection, schedule: Q04DX003 (ip), vehicle: Klucel (hydroxypropylcellulose) (HPC)); 100 % of control (dose: 50.0 mg/kg/injection, schedule: Q04DX003 (ip), vehicle: Klucel (hydroxypropylcellulose) (HPC)); 97 % of control under setting [6].
As to `CN(Cc1cnc2nc(N)nc(N)c2n1)c1ccc(C(=O)NC(CCC(=O)O)C(=O)O)cc1I` (stereo not drawn), the T/C reads like this: (dose: 2.5 mg/kg/injection, schedule: Q01DX009 (ip), vehicle: sodium bicarbonate) 176 % of control; (dose: 5.0 mg/kg/injection, schedule: Q01DX009 (ip), vehicle: sodium bicarbonate) 175 % of control; (dose: 10.0 mg/kg/injection, schedule: Q01DX009 (ip), vehicle: sodium bicarbonate) 104 % of control.
As for `CSC(N)=Nc1cccc(C)c1C`, the T/C by setting is: (dose: 50.0 mg/kg/injection, schedule: Q01DX009 (ip), vehicle: saline) 100 % of control; under setting [7], 101 % of control; under setting [2], 97 % of control; under setting [4], 97 % of control.
As for `Nc1nc(N)nc(-c2ccccc2NN=Nc2ccccc2[N+](=O)[O-])n1`, the T/C is, setting by setting: under setting [8], 103 % of control; under setting [9], 97 % of control; under setting [10], 100 % of control.
Consider `CCN1CCCCCCCCCC(=N/O)/C(=N\O)C1`, for which the T/C under setting [11] is 101 % of control, the T/C under setting [12] is 103 % of control and the T/C under setting [13] is 95 % of control.
As to `CC(C)N(C(C)C)S(C)(=O)=O`, the T/C under setting [2] is 92 % of control.
In the case of `CCS(=O)(=O)c1ccc(NC(=O)OC(C)(C)C)cc1`, the T/C was 94 % of control under setting [14], 94 % of control under setting [15] and 100 % of control under setting [16].
Regarding `COC(=O)CNC(=O)CNC(=O)OCc1ccccc1` (Cbz-Gly-Gly-OMe), the T/C reads like this: under setting [7], 102 % of control; under setting [2], 102 % of control; (dose: 200.0 mg/kg/injection, schedule: Q01DX009 (ip), vehicle: saline) 100 % of control; under setting [4], 98 % of control; (dose: 400.0 mg/kg/injection, schedule: Q01DX009 (ip), vehicle: saline) 102 % of control; under setting [5], 107 % of control.
Turning to `COC(=O)c1ccc(N(C)Cc2cnc3nc(N)nc(SCc4ccccc4)c3n2)cc1`, the T/C is, setting by setting: under setting [17], 97 % of control; under setting [18], 94 % of control; under setting [19], 101 % of control.
On to `OC1CC2CCC(C1)S2` (stereo not drawn), for which the T/C (dose: 50.0 mg/kg/injection, schedule: Q01DX001 (ip), vehicle: Klucel (hydroxypropylcellulose) (HPC)) is 100 % of control; the T/C (dose: 100.0 mg/kg/injection, schedule: Q01DX001 (ip), vehicle: Klucel (hydroxypropylcellulose) (HPC)) was 105 % of control; the T/C (dose: 200.0 mg/kg/injection, schedule: Q01DX001 (ip), vehicle: Klucel (hydroxypropylcellulose) (HPC)) was 96 % of control.
For `CN(C)CCCCCCN(C)C` (tested in a mixture with another compound), the T/C reads like this: (dose: 9.38 mg/kg/injection, schedule: Q01DX001 (ip), vehicle: saline) 102 % of control; (dose: 18.75 mg/kg/injection, schedule: Q01DX001 (ip), vehicle: saline) 95 % of control; (dose: 37.5 mg/kg/injection, schedule: Q01DX001 (ip), vehicle: saline) 93 % of control.
As to `CCCCOCN(COCCCC)C(C)(C)C`, the T/C runs as follows: under setting [12], 93 % of control; under setting [13], 98 % of control; under setting [20], 117 % of control.
In the case of `Cc1nc(N)[nH]c(=O)c1CCCNS(=O)(=O)c1ccc(C(=O)CBr)cc1`, the T/C under setting [14] was 93 % of control, the T/C under setting [15] was 87 % of control and the T/C under setting [16] was 96 % of control.
For the molecule `CC(C)CC(CC(C)C)NCCO`, the T/C (dose: 75.0 mg/kg/injection, schedule: Q01DX001 (ip), vehicle: acid diluted with saline) was 103 % of control.
For `CC1(C)C2CCC(CC(=O)O)C1C2` (stereo not drawn), the T/C was 101 % of control (dose: 100.0 mg/kg/injection, schedule: Q04DX003 (ip), vehicle: saline with Tween-80) and 101 % of control (dose: 200.0 mg/kg/injection, schedule: Q04DX003 (ip), vehicle: saline with Tween-80).
Turning to `CC(=O)Oc1ccc(CC(C(=O)O)c2ccccc2)cc1` (stereo not drawn), the T/C was 107 % of control under setting [12]; 91 % of control under setting [8]; 100 % of control under setting [6]; 101 % of control under setting [13]; 109 % of control under setting [9]; 96 % of control (dose: 200.0 mg/kg/injection, schedule: Q04DX003 (ip), vehicle: Klucel (hydroxypropylcellulose) (HPC)). Further, the T/C under setting [20] is 113 % of control; the T/C under setting [10] is 95 % of control; the T/C (dose: 400.0 mg/kg/injection, schedule: Q04DX003 (ip), vehicle: Klucel (hydroxypropylcellulose) (HPC)) was 96 % of control.
Turning to `Cc1cccc(CN=C(N)CCl)n1`, the T/C is 98 % of control under setting [21] and 95 % of control under setting [22].
For the molecule `FC(F)(F)c1cccc(N2N=NC3CC/C(=C\c4ccccc4)C32N2CCOCC2)c1` (stereo not drawn), the T/C reads like this: under setting [21], 97 % of control; under setting [22], 90 % of control; under setting [23], 93 % of control.
Regarding `Brc1ccc2[nH]cc(/C=N/Nc3nnc(N/N=C/c4c[nH]c5ccc(Br)cc45)c4ccccc34)c2c1`, the T/C under setting [11] was 101 % of control.
In the case of `CCCc1cc(CCC)n2nc(N)nc2n1`, the T/C is, setting by setting: (dose: 50.0 mg/kg/injection, schedule: Q01DX009 (ip), vehicle: saline with Tween-80) 100 % of control; under setting [1], 98 % of control; under setting [3], 96 % of control.
Regarding `CN(Cc1cccc(Cl)c1)C(=O)Nc1ccccc1`, the T/C by setting is: under setting [21], 110 % of control; under setting [22], 110 % of control; under setting [23], 107 % of control.
Turning to `OC(CCl)C(O)C(O)C(O)CCl` (stereo not drawn), the T/C by setting is: (dose: 44.0 mg/kg/injection, schedule: Q01DX001 (ip), vehicle: saline) 103 % of control; (dose: 66.0 mg/kg/injection, schedule: Q01DX001 (ip), vehicle: saline) 103 % of control; under setting [17], 95 % of control; under setting [12], 103 % of control; (dose: 150.0 mg/kg/injection, schedule: Q01DX001 (ip), vehicle: saline) 96 % of control; under setting [18], 92 % of control. Also, the T/C by setting is: under setting [13], 101 % of control; under setting [19], 89 % of control; under setting [20], 97 % of control.
With `O=C(O)C1C(C(=O)O)C2(c3ccccc3)C(=O)C1(c1ccccc1)C(c1ccccc1)=C2c1ccccc1` (stereo not drawn), the T/C by setting is: under setting [17], 89 % of control; under setting [18], 110 % of control; under setting [19], 100 % of control.

For the origin of these results see PubChem BioAssay AID248 (DTP/NCI, 2004).
